Measured values reported in the supplement of paper PMC10307832.

How the values were obtained:
Test in all cases: relative viability (nuclei count vs DMSO), 5 days (fraction); higher = more cells survive
[1] = compound: CCN(CC)CCNC(=O)c1c(C)[nH]c(/C=C2\C(=O)Nc3ccc(F)cc32)c1C [Sunitinib] + C[C@@H](Oc1cc(-c2cnn(C3CCNCC3)c2)cnc1N)c1c(Cl)ccc(F)c1Cl [Crizotinib] (partner 1 µM)
In short: (§1)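 Lung cancer cell lines in 1536-well plates got either a single drug or a fixed anchor-drug dose together with five library-drug doses (not always all listed) in √10 steps, by pin tool, on the day after seeding. Nuclei were counted after 5 days, and relative viability is the treated-to-vehicle ratio of nuclei counts. Values are medians of duplicate plates.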

[2] = compound: CCN(CC)CCNC(=O)c1c(C)[nH]c(/C=C2\C(=O)Nc3ccc(F)cc32)c1C [Sunitinib] + CC(=O)c1c(C)c2cnc(Nc3ccc(N4CCNCC4)cn3)nc2n(C2CCCC2)c1=O [Palbociclib] (partner 0.5 µM)
In short: as §1

[3] = compound: CCN(CC)CCNC(=O)c1c(C)[nH]c(/C=C2\C(=O)Nc3ccc(F)cc32)c1C [Sunitinib] + O=C(CCCCCCC(=O)Nc1ccccc1)NO [Vorinostat] (partner 1 µM)
In short: as §1

[4] = compound: CCN(CC)CCNC(=O)c1c(C)[nH]c(/C=C2\C(=O)Nc3ccc(F)cc32)c1C [Sunitinib] + NC(=O)Nc1cc(-c2cccc(F)c2)sc1C(=O)N[C@H]1CCCNC1 [AZD7762] (partner 0.2 µM)
In short: as §1

Cell Line | relative viability ([1]; first compound 0.02 µM) | relative viability ([1]; first compound 0.06325 µM) | relative viability ([1]; first compound 0.2 µM) | relative viability ([1]; first compound 0.6325 µM) | relative viability ([1]; first compound 2 µM) | relative viability ([2]; first compound 0.02 µM) | relative viability ([2]; first compound 0.06325 µM) | relative viability ([2]; first compound 0.2 µM) | relative viability ([2]; first compound 0.6325 µM) | relative viability ([2]; first compound 2 µM) | relative viability ([3]; first compound 0.02 µM) | relative viability ([3]; first compound 0.06325 µM) | relative viability ([3]; first compound 0.2 µM) | relative viability ([3]; first compound 0.6325 µM) | relative viability ([3]; first compound 2 µM) | relative viability ([4]; first compound 0.02 µM) | relative viability ([4]; first compound 0.06325 µM) | relative viability ([4]; first compound 0.2 µM) | relative viability ([4]; first compound 0.6325 µM) | relative viability ([4]; first compound 2 µM)
NCI-H2085 | 0.844 | 0.817 | 1.03 | 0.85 | 0.798 | 0.454 | 0.5 | 0.472 | 0.494 | 0.494 | 0.784 | 0.827 | 0.84 | 0.813 | 0.807 | 0.965 | 0.976 | 1.12 | 1.07 | 1
NCI-H2087 | 0.909 | 1.09 | 1.15 | 0.967 | 0.791 | 0.27 | 0.266 | 0.25 | 0.28 | 0.255 | 0.748 | 0.664 | 0.667 | 0.715 | 0.712 | 1.21 | 1.42 | 1.34 | 1.41 | 1.46
NCI-H2126 | 1.01 | 1.04 | 1.07 | 1.01 | 1.01 | 0.341 | 0.36 | 0.37 | 0.338 | 0.359 | 0.73 | 0.906 | 0.857 | 0.808 | 0.84 | 0.937 | 1.07 | 1.21 | 1.03 | 1.02
NCI-H2170 | 1.11 | 1.12 | 1.34 | 1.14 | 1.17 | 0.392 | 0.376 | 0.422 | 0.379 | 0.421 | 0.78 | 0.826 | 0.927 | 0.842 | 0.709 | 0.797 | 0.876 | 0.955 | 0.87 | 0.772
NCI-H2347 | 0.665 | 0.795 | – | 0.731 | 0.822 | 0.454 | 0.43 | 0.453 | 0.422 | 0.472 | 0.648 | 0.653 | 0.723 | 0.554 | 0.757 | 0.709 | 0.844 | 0.813 | 0.838 | 0.871
NCI-H2405 | 0.803 | 0.868 | 0.955 | 0.862 | 0.889 | 0.495 | 0.581 | 0.546 | 0.494 | 0.587 | 1.09 | 0.991 | 1.12 | 1.08 | 1.04 | 0.703 | 0.759 | 0.8 | 0.878 | 0.648
NCI-H3122 | 0.273 | 0.247 | 0.249 | 0.241 | 0.297 | 0.159 | 0.189 | 0.213 | 0.176 | 0.207 | 0.958 | 1.02 | 1.03 | 1.05 | 1.02 | 0.933 | 1.08 | 1.01 | 0.999 | 1.01
PC-3 [JPC-3] | 1.03 | 0.943 | 1.01 | 1.02 | 0.984 | 0.539 | 0.561 | 0.566 | 0.56 | 0.602 | 0.919 | 0.805 | 0.858 | 0.904 | 0.928 | 0.844 | 0.79 | 0.845 | 0.827 | 0.865
PC-14 | – | 0.863 | 1.08 | 0.921 | 0.816 | 0.509 | 0.462 | 0.562 | 0.527 | 0.474 | 0.689 | 0.74 | 0.853 | 0.834 | 0.665 | 0.374 | 0.442 | 0.387 | 0.319 | 0.348
RERF-LC-KJ | 0.802 | 0.838 | 0.934 | 0.786 | 0.855 | 1.07 | 1.05 | 1.03 | 0.996 | 1.21 | 0.701 | 0.733 | 0.674 | 0.66 | 0.707 | 0.959 | 1.05 | 1.04 | 0.932 | 1
